Results on two compounds are retold here after ChEMBL document CHEMBL5728361, “(S)-2-(1-cyclopropylethyl)-5-(4-methyl-2-((6-(2-oxopyrrolidin-1-yl)pyridin-2-yl)amino) thiazol-5-yl)-7-(methylsulfonyl)isoindolin-1-one as a phosphatidylinositol 3-kinase inhibitor” (2021).

A short description of assay [1]: (§1) Enzymatic Activity Assay : The activity of recombinant human PI3Kγ ((aa144-1102)-6His) and PI3Kα, β, δ (6-His(p110-p85α)) was determined by measuring the ADP level after phosphorylation of DiC8-PIP2 using a commercially available ADP-Glo™ kit from Promega. The assay was carried out in white low volume 384 well plates in a final volume of 14 μl at R.T. The assay conditions contained the following: 50 mM Tris buffer pH 7.4, 2.1 mM DTT, 3 mM MgCl2, 0.05% CHAPS, 20 μM ATP, 80 μM DiC8-PIP2 and 1.2 nM PI3Kα, β, γ or 0.6 nM PI3Kδ. Potential inhibitors were made up in DMSO and then diluted in the assay to give a final concentration of not exceeding 1% (v/v) DMSO. […] Routinely, inhibitors were pre-incubated with 3 μl of enzyme for 15 min prior to the addition of 2 μl substrate mixture for a further 60 min enzyme reaction. The phosphorylation was stopped with the addition of 3 μl ADP-Glo™ reagent (stop solution) followed by a 40 min incubation. Prior to detection 6 μl of ADP-Glo™ Kinase Detection Reagent was added and the plates were read in a micro plate reader using a Luminescence filter. All additions were followed by a short centrifugation step. On the technique in general: ADP-Glo first removes unused ATP, then detects ADP through luciferase.

The target of assay [2] is Phosphatidylinositol 4,5-bisphosphate 3-kinase catalytic subunit alpha isoform (Homo sapiens, UniProt P42336). Described as §1.
Phosphatidylinositol 4,5-bisphosphate 3-kinase catalytic subunit alpha isoform, sequence (P42336 whole entry, canonical isoform): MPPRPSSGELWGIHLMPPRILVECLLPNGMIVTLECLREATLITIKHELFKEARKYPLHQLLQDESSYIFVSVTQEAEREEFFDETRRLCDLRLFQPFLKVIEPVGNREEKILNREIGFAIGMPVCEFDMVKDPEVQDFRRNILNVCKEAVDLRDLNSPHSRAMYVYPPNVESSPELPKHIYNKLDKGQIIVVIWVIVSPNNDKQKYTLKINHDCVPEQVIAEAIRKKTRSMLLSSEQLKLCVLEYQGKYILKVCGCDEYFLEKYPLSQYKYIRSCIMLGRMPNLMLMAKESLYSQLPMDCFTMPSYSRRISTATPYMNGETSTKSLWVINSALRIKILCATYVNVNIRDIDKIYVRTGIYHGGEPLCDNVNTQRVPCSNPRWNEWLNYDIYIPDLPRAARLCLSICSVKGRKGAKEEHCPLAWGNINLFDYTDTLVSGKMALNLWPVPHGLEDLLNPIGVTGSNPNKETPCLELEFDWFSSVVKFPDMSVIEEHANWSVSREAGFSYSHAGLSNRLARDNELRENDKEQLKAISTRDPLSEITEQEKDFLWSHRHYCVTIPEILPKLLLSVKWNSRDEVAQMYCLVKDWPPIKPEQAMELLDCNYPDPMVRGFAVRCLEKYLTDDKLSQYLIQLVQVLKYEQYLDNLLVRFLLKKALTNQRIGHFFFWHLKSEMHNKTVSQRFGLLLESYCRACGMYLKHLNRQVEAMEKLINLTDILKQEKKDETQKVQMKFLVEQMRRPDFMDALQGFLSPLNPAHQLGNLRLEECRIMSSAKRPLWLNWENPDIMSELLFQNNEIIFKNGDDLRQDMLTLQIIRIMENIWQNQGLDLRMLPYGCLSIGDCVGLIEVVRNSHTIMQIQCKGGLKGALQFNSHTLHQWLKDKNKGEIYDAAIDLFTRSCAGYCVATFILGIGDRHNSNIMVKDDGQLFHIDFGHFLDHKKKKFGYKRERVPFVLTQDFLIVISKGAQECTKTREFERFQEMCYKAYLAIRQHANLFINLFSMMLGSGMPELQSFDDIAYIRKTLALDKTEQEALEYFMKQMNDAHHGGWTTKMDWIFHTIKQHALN
Assay [3] addresses Phosphatidylinositol 4,5-bisphosphate 3-kinase catalytic subunit beta isoform (Homo sapiens, UniProt P42338). The description is as §1.
Assay [4] has as its target T1, Phosphatidylinositol 4,5-bisphosphate 3-kinase catalytic subunit delta isoform (Homo sapiens, UniProt O00329).
T1 sequence (O00329 whole entry): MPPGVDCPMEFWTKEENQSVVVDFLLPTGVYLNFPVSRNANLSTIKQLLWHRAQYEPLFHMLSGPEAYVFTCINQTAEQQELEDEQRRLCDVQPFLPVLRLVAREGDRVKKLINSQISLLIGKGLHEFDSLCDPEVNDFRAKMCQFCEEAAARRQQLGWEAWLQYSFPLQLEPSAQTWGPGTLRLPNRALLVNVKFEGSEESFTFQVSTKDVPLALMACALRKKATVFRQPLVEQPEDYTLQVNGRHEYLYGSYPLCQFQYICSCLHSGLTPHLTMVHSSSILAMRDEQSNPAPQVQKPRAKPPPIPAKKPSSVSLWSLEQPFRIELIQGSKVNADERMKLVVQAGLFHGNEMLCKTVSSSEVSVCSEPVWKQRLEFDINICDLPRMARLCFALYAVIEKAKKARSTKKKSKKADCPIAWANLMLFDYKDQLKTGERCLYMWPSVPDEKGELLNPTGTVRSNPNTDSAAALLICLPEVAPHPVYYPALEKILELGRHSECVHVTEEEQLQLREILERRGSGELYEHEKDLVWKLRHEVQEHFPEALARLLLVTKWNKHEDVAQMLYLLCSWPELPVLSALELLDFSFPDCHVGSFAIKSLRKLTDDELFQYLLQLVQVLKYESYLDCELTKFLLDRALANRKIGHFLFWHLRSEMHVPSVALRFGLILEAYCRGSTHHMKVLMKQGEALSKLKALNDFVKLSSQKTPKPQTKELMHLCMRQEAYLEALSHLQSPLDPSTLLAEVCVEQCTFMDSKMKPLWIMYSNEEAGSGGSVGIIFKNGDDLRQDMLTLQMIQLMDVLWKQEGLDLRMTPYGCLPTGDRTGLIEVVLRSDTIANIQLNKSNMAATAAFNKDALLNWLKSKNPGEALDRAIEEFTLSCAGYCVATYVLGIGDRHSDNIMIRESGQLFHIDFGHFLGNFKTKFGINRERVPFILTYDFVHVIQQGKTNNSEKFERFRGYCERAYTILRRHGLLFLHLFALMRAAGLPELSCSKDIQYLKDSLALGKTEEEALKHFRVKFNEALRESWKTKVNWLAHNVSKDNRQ
The assay is described as §1.

Phosphatidylinositol 4,5-bisphosphate 3-kinase catalytic subunit beta isoform, sequence (P42338 whole entry, canonical isoform): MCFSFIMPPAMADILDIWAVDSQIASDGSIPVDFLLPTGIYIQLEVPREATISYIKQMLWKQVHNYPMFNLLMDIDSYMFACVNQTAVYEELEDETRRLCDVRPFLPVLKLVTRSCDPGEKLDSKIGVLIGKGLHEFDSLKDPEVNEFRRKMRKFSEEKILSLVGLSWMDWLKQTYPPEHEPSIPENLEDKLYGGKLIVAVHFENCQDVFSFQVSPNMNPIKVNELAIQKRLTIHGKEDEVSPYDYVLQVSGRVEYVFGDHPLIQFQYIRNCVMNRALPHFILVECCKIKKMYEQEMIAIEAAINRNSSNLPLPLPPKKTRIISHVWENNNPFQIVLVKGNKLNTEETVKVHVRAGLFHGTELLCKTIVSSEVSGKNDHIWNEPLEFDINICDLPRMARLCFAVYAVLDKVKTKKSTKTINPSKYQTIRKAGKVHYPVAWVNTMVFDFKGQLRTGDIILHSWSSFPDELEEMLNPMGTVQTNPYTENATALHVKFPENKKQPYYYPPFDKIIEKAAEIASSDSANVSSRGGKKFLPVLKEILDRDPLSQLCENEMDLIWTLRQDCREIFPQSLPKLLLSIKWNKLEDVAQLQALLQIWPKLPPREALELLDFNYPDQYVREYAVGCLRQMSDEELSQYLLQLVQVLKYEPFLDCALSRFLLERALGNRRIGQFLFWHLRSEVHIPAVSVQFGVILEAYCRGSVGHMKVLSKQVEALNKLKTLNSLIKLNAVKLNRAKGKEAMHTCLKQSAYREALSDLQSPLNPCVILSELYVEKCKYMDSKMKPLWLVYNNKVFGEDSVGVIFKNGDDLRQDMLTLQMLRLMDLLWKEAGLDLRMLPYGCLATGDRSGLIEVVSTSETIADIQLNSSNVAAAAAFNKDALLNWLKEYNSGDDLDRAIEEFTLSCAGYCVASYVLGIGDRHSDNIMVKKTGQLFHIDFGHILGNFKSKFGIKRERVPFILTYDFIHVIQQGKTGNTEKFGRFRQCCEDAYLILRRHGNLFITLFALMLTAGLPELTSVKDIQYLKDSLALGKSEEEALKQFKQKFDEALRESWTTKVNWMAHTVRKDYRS

Regarding `Cc1nc(Nc2cccc(N3CCCC3=O)c2)sc1-c1cc2c(c(S(C)(=O)=O)c1)C(=O)N([C@@H](C)C1CC1)C2`, the IC50 in assay [1] stood at 0.9 nM.
In the case of `CC[C@H](C)N1Cc2cc(-c3sc(Nc4cccc(N5CCCOC5=O)n4)nc3C)cc(S(=O)(=O)NC)c2C1=O`, the IC50 in assay [2] was 80 nM; in assay [3], 459 nM; in assay [4] it was 2.2 nM.

What is called IC50 is the concentration at which inhibition is half-maximal.
